Counter-ions that a name gives are not always drawn.
Tests used:
[1] = In vivo pharmacokinetic study in beagle dogs; details: male, dog, plasma, po, gavage, 10 mg/kg
Method: With beagle dogs as test animals, the drug concentration in the plasma of beagle dogs at different time points after oral administration of the compound of the present disclosure was determined by using LC/MS/MS. The pharmacokinetic behavior of the compound of the present disclosure in beagle dogs was studied to evaluate its pharmacokinetic characteristics.
Experimental animals: 2 healthy male beagle dogs aged 8 to 36 months per group
Drug preparation: A certain amount of drug was weighed and prepared into a 2 mg/mL colorless clear solution with normal saline.
Administration: Beagle dogs were fasted overnight and administered with the drug by gavage. The dosage of reference 1 and the compound of Example 6 was both 10 mg/kg.
Procedure: Beagle dogs were administered by gavage with the compound of the present disclosure. Approximately 0.6 mL of blood was collected by peripheral venipuncture at 0.25, 0.5, 1, 2, 4, 6, 8, and 24 h after administration. The blood was placed in a tube containing EDTA-K2 and centrifuged at 2000 rpm for 10 min at approximately 4°C to separate the plasma, which was then stored at -75°C.
Determination of the content of the test compound in beagle dog plasma at different blood collection time points: 33 µL of beagle dog plasma (30 µL plasma and 3 µL blank) collected at each time point after administration was added to 18 µL of 6% perchloric acid solution, vortexed for 30 s, and centrifuged at 3900 rpm at 4°C for 15 min. Then, 200 µL of alkaline (pH 10-11 as adjusted with ammonia water) acetonitrile solution containing internal standard dexamethasone was added to precipitate the protein. The mixture was vortexed for 30 s and centrifuged at 3900 rpm at 4°C for 15 min. The supernatant of the plasma sample was taken, diluted 3-fold with water, and 8 µL was taken for LC/MS/MS analysis.
After the blood drug concentration was determined by LC/MS/MS analysis, the pharmacokinetic parameters were calculated using WinNonlin 6.1 software and the non-compartmental model method. Table 1 Pharmacokinetic parameters of the compounds of the present disclosure in beagle dogs

[2] = Long-term accelerated stability test (Test Example 4), sealed in aluminum foil bag (nitrogen-filled); format: physicochemical
[3] = Long-term accelerated stability test (Test Example 3), sealed in aluminum foil bags; format: physicochemical; details: for physicochemical stability: 25°C/60%RH and 40°C/75%RH for 6 months
[4] = DVS hygroscopicity test (dynamic moisture sorption); format: physicochemical; details: at 80% RH
Method: DVS stands for dynamic moisture sorption: using the Surface Measurement Systems instrument, humidity started at 50% and the humidity range investigated was 0%-95% with a step of 10%. The judgment standard is that the mass change of each gradient dM/dT is ≤ 0.002%, TMAX is 360 min, and there are two cycles.

Cl.Cl.Cl.Cl.O=C(O)[C@@H](Cc1cccc(CN(CCOc2cccc(C[C@H](C(=O)O)[C@H]3CCNC3)c2)Cc2cccc(C[C@H](C(=O)O)[C@H]3CCNC3)c2)c1)[C@H]1CCNC1 [Compound A hydrochloride, (2S)-3-(3-{[(2-{3-[(2S)-2-carboxyl-2-[(3R)-pyrrolidin-3-yl]ethyl]phenoxy}ethyl)({3-[(2S)-2-carboxyl-2-[(3R)-pyrrolidin-3-yl]ethyl]phenyl}methyl)amino]methyl}phenyl)-2-[(3R)-pyrrolidin-3-yl]propionic acid tetrahydrochloride]
AUC ([1]; read-out: Area under curve AUC): 28600 ng·h/mL
half-life ([1]; read-out: Half life T1/2 (converted)): 18.3 h
Cmax ([1]; read-out: Maximum blood concentration Cmax): 2470 ng/mL

O=C(O)[C@@H](Cc1cccc(CN(CCOc2cccc(C[C@H](C(=O)O)[C@H]3CCNC3)c2)Cc2cccc(C[C@H](C(=O)O)[C@H]3CCNC3)c2)c1)[C@H]1CCNC1 [free crystal form C, (2S)-3-(3-{[(2-{3-[(2S)-2-carboxyl-2-[(3R)-pyrrolidin-3-yl]ethyl]phenoxy}ethyl)({3-[(2S)-2-carboxyl-2-[(3R)-pyrrolidin-3-yl]ethyl]phenyl}methyl)amino]methyl}phenyl)-2-[(3R)-pyrrolidin-3-yl]propionic acid]
Crystal form ([2]; 0 day): Crystal form C
Purity (%) ([2]; 0 day): 99.8%
Crystal form ([2]; 25°C-60%RH, 1 month): Unchanged
Purity (%) ([2]; 25°C-60%RH, 1 month): 99.8%
Crystal form ([2]; 25°C-60%RH, 3 months): Unchanged
Purity (%) ([2]; 25°C-60%RH, 3 months): 99.7%
Crystal form ([2]; 25°C-60%RH, 6 months): Unchanged
Purity (%) ([2]; 25°C-60%RH, 6 months): 99.7%
Crystal form ([2]; 25°C-60%RH, 7 days): Unchanged
Purity (%) ([2]; 25°C-60%RH, 7 days): 99.8%
Crystal form ([2]; 25°C-60%RH, 14 days): Unchanged
Purity (%) ([2]; 25°C-60%RH, 14 days): 99.8%
physicochemical stability ([2]; 25°C/60%RH and 40°C/75%RH for 6 months): good
Crystal form ([2]; 40°C-75%RH, 1 month): Unchanged
Purity (%) ([2]; 40°C-75%RH, 1 month): 99.8%
Crystal form ([2]; 40°C-75%RH, 3 months): Unchanged
Purity (%) ([2]; 40°C-75%RH, 3 months): 99.3%
Crystal form ([2]; 40°C-75%RH, 6 months): Unchanged
Purity (%) ([2]; 40°C-75%RH, 6 months): 99.3%
Crystal form ([2]; 40°C-75%RH, 7 days): Unchanged
Purity (%) ([2]; 40°C-75%RH, 7 days): 99.8%
Crystal form ([2]; 40°C-75%RH, 14 days): Unchanged
Purity (%) ([2]; 40°C-75%RH, 14 days): 99.8%

O=C(O)[C@@H](Cc1cccc(CN(CCOc2cccc(C[C@H](C(=O)O)[C@H]3CCNC3)c2)Cc2cccc(C[C@H](C(=O)O)[C@H]3CCNC3)c2)c1)[C@H]1CCNC1 [hydrochloride (1:1) amorphous form, (2S)-3-(3-{[(2-{3-[(2S)-2-carboxyl-2-[(3R)-pyrrolidin-3-yl]ethyl]phenoxy}ethyl)({3-[(2S)-2-carboxyl-2-[(3R)-pyrrolidin-3-yl]ethyl]phenyl}methyl)amino]methyl}phenyl)-2-[(3R)-pyrrolidin-3-yl]propionic acid]
Crystal form ([3]; 0 day): Amorphous form
Purity (%) ([3]; 0 day): 98.8%
Crystal form ([3]; 25°C-60%RH, 1 month): Crystal form a
Purity (%) ([3]; 25°C-60%RH, 1 month): 98.7%
Crystal form ([3]; 25°C-60%RH, 2 months): Crystal form a
Purity (%) ([3]; 25°C-60%RH, 2 months): 98.6%
Crystal form ([3]; 25°C-60%RH, 3 months): Crystal form a
Purity (%) ([3]; 25°C-60%RH, 3 months): 98.2%
Crystal form ([3]; 25°C-60%RH, 7 days): Unchanged
Purity (%) ([3]; 25°C-60%RH, 7 days): 98.8%
Crystal form ([3]; 25°C-60%RH, 14 days): Unchanged
Purity (%) ([3]; 25°C-60%RH, 14 days): 98.8%
physicochemical stability [3]: slightly less stable
Crystal form ([3]; 40°C-75%RH, 1 month): Crystal form a
Purity (%) ([3]; 40°C-75%RH, 1 month): 97.6%
Crystal form ([3]; 40°C-75%RH, 2 months): Crystal form a
Purity (%) ([3]; 40°C-75%RH, 2 months): 95.6%
Crystal form ([3]; 40°C-75%RH, 3 months): Crystal form a
Purity (%) ([3]; 40°C-75%RH, 3 months): 95.3%
Crystal form ([3]; 40°C-75%RH, 7 days): Crystal form a
Purity (%) ([3]; 40°C-75%RH, 7 days): 98.3%
Crystal form ([3]; 40°C-75%RH, 14 days): Crystal form a
Purity (%) ([3]; 40°C-75%RH, 14 days): 98.1%

O=C(O)[C@@H](Cc1cccc(CN(CCOc2cccc(C[C@H](C(=O)O)[C@H]3CCNC3)c2)Cc2cccc(C[C@H](C(=O)O)[C@H]3CCNC3)c2)c1)[C@H]1CCNC1 [hydrochloride (1:1) crystal form a, (2S)-3-(3-{[(2-{3-[(2S)-2-carboxyl-2-[(3R)-pyrrolidin-3-yl]ethyl]phenoxy}ethyl)({3-[(2S)-2-carboxyl-2-[(3R)-pyrrolidin-3-yl]ethyl]phenyl}methyl)amino]methyl}phenyl)-2-[(3R)-pyrrolidin-3-yl]propionic acid]
DVS hygroscopicity weight gain ([4]; listed as hydrochloride crystal form a): 30%
Crystal form ([3]; 0 day): Hydrochloride crystal form a
Purity (%) ([3]; 0 day): 99.9%
Crystal form ([3]; 25°C-60%RH, 1 month): Unchanged
Purity (%) ([3]; 25°C-60%RH, 1 month): 99.9%
Crystal form ([3]; 25°C-60%RH, 3 months): Deliquescent
Purity (%) ([3]; 25°C-60%RH, 3 months): 99.7%
Crystal form ([3]; 25°C-60%RH, 6 months): Deliquescent
Purity (%) ([3]; 25°C-60%RH, 6 months): 98.5%
Crystal form ([3]; 25°C-60%RH, 7 days): Unchanged
Purity (%) ([3]; 25°C-60%RH, 7 days): 99.9%
Crystal form ([3]; 25°C-60%RH, 14 days): Unchanged
Purity (%) ([3]; 25°C-60%RH, 14 days): 99.9%
physicochemical stability [3]: slightly less stable
Crystal form ([3]; 40°C-75%RH, 1 month): Deliquescent
Purity (%) ([3]; 40°C-75%RH, 1 month): 97.7%
Crystal form ([3]; 40°C-75%RH, 3 months): Deliquescent
Purity (%) ([3]; 40°C-75%RH, 3 months): 95.2%
Crystal form ([3]; 40°C-75%RH, 6 months): Deliquescent
Purity (%) ([3]; 40°C-75%RH, 6 months): 94.8%
Crystal form ([3]; 40°C-75%RH, 7 days): Unchanged
Purity (%) ([3]; 40°C-75%RH, 7 days): 99.8%
Crystal form ([3]; 40°C-75%RH, 14 days): Unchanged
Purity (%) ([3]; 40°C-75%RH, 14 days): 98.8%

O=C(O)[C@@H](Cc1cccc(CN(CCOc2cccc(C[C@H](C(=O)O)[C@H]3CCNC3)c2)Cc2cccc(C[C@H](C(=O)O)[C@H]3CCNC3)c2)c1)[C@H]1CCNC1 [hydrochloride (1:1) crystal form e, (2S)-3-(3-{[(2-{3-[(2S)-2-carboxyl-2-[(3R)-pyrrolidin-3-yl]ethyl]phenoxy}ethyl)({3-[(2S)-2-carboxyl-2-[(3R)-pyrrolidin-3-yl]ethyl]phenyl}methyl)amino]methyl}phenyl)-2-[(3R)-pyrrolidin-3-yl]propionic acid]
DVS hygroscopicity weight gain ([4]; listed as hydrochloride crystal form e): 18%
Crystal form ([3]; 0 day): Hydrochloride crystal form e
Purity (%) ([3]; 0 day): 99.9%
Crystal form ([3]; 25°C-60%RH, 1 month): Unchanged
Purity (%) ([3]; 25°C-60%RH, 1 month): 99.9%
Crystal form ([3]; 25°C-60%RH, 3 months): Unchanged
Purity (%) ([3]; 25°C-60%RH, 3 months): 99.9%
Crystal form ([3]; 25°C-60%RH, 6 months): Unchanged
Purity (%) ([3]; 25°C-60%RH, 6 months): 99.9%
Crystal form ([3]; 25°C-60%RH, 7 days): Unchanged
Purity (%) ([3]; 25°C-60%RH, 7 days): 99.9%
Crystal form ([3]; 25°C-60%RH, 14 days): Unchanged
Purity (%) ([3]; 25°C-60%RH, 14 days): 99.9%
physicochemical stability [3]: good
Crystal form ([3]; 40°C-75%RH, 1 month): Unchanged
Purity (%) ([3]; 40°C-75%RH, 1 month): 99.9%
Crystal form ([3]; 40°C-75%RH, 3 months): Unchanged
Purity (%) ([3]; 40°C-75%RH, 3 months): 99.9%
Crystal form ([3]; 40°C-75%RH, 6 months): Unchanged
Purity (%) ([3]; 40°C-75%RH, 6 months): 99.9%
Crystal form ([3]; 40°C-75%RH, 7 days): Unchanged
Purity (%) ([3]; 40°C-75%RH, 7 days): 99.9%
Crystal form ([3]; 40°C-75%RH, 14 days): Unchanged
Purity (%) ([3]; 40°C-75%RH, 14 days): 99.9%

Cl.Cl.Cl.Cl.O=C(O)[C@@H](Cc1cccc(CN(CCOc2cccc(C[C@H](C(=O)O)[C@H]3CCNC3)c2)Cc2cccc(C[C@H](C(=O)O)[C@H]3CCNC3)c2)c1)[C@H]1CCNC1 [hydrochloride (1:4) amorphous form, (2S)-3-(3-{[(2-{3-[(2S)-2-carboxyl-2-[(3R)-pyrrolidin-3-yl]ethyl]phenoxy}ethyl)({3-[(2S)-2-carboxyl-2-[(3R)-pyrrolidin-3-yl]ethyl]phenyl}methyl)amino]methyl}phenyl)-2-[(3R)-pyrrolidin-3-yl]propionic acid tetrahydrochloride]
Crystal form ([3]; 0 day): Amorphous form
Purity (%) ([3]; 0 day): 99.8%
Crystal form ([3]; 25°C-60%RH, 1 month): Unchanged
Purity (%) ([3]; 25°C-60%RH, 1 month): 99.8%
Crystal form ([3]; 25°C-60%RH, 2 months): Deliquescent
Purity (%) ([3]; 25°C-60%RH, 2 months): 99.8%
Crystal form ([3]; 25°C-60%RH, 3 months): Deliquescent
Purity (%) ([3]; 25°C-60%RH, 3 months): 99.8%
Crystal form ([3]; 25°C-60%RH, 6 months): Deliquescent
Purity (%) ([3]; 25°C-60%RH, 6 months): 99.8%
Crystal form ([3]; 25°C-60%RH, 7 days): Unchanged
Purity (%) ([3]; 25°C-60%RH, 7 days): 99.8%
Crystal form ([3]; 25°C-60%RH, 14 days): Unchanged
Purity (%) ([3]; 25°C-60%RH, 14 days): 99.8%
physicochemical stability [3]: slightly less stable
Crystal form ([3]; 40°C-75%RH, 1 month): Deliquescent
Purity (%) ([3]; 40°C-75%RH, 1 month): 99.8%
Crystal form ([3]; 40°C-75%RH, 2 months): Deliquescent
Purity (%) ([3]; 40°C-75%RH, 2 months): 99.8%
Crystal form ([3]; 40°C-75%RH, 3 months): Deliquescent
Purity (%) ([3]; 40°C-75%RH, 3 months): 99.8%
Crystal form ([3]; 40°C-75%RH, 6 months): Deliquescent
Purity (%) ([3]; 40°C-75%RH, 6 months): 99.8%
Crystal form ([3]; 40°C-75%RH, 7 days): Unchanged
Purity (%) ([3]; 40°C-75%RH, 7 days): 99.8%
Crystal form ([3]; 40°C-75%RH, 14 days): Unchanged
Purity (%) ([3]; 40°C-75%RH, 14 days): 99.8%

Source: patent EP4711355A1, “CRYSTAL FORM OF LIPOPROTEIN COMPOUND AND PREPARATION METHOD THEREFOR” (Jiangsu Hengrui Pharmaceuticals Co., Ltd., priority 2023, dated 2024)
